Experimental data from PubChem BioAssay AID1918996 (Molecular Pharmacology Branch, DTP, NCI, 2023).
“And” between values parts separate entries of the source, which are not always exact repeats. Identical values can stand only once.

System: 349418-098-R-PDC complex spheroid growth
Experiment: Anticancer human tumor 349418-098-R-PDC patient-derived lung adenocarcinoma cell line growth inhibition [AhR]
Settings: for viability, T/C: stronger effect = lower value
Source text: Multicellular complex tumor spheroid response to aryl hydrocarbon receptor antagonists in combination with a variety of drugs and investigational agents in selected tumor cell lines
The current study was undertaken to assess response to aryl hydrocarbon receptor antagonists in combination with standard-of-care drugs and investigational agents in solid tumor complex spheroid models. Complex spheroids include a stromal component modeled by human endothelial cells (HUVEC) and fibroblasts modeled by human mesenchymal stem cells (MSCs). The concentration ranges selected for each drug and investigational agent were based upon clinically achievable concentrations if the clinical Cmax of the agent was known.
Compounds. The drugs and investigational agents: BAY 2416964 (NSC825713), GNF351 (NSC835774), CH-223191 (NSC835775), CPI-455 (NSC825282), aza-TdCyd (NSC777586), decitabine (NSC127716), belinostat (NSC758774), entinostat (NSC756642), pevonedistat (NSC761192), tazemetostat (NSC777109), talazoparib (NSC765396), olaparib (NSC753686), selinexor (NSC780203), nedisertib (M3814, NSC802822), bortezomib (NSC756655), venetoclax (NSC766270), doxorubicin (NSC123127), elimusertib (BAY189344, NSC800525), ceralasertib (AZD6738, NSC777638), TAK-243 (NSC785004), alisertib (NSC759677), etoposide (NSC141540), topotecan (NSC609699), eribulin (NSC707389), gemcitabine (NSC613327), carboplatin (NSC241240), cisplatin (NSC119875), and SN-38 (NSC673596) were obtained from the National Cancer Institute (NCI) Developmental Therapeutics Program Chemical Repository (32). The FDA-approved anticancer drug set is available from the Developmental Therapeutics Program at https://dtp.cancer.gov/organization/dscb/obtaining/available plates.htm. […] The stock solutions were prepared in dimethyl sulfoxide (DMSO, Sigma-Aldrich, St. Louis, MO, cat. D2650), except for the platinum compounds which were prepared in saline (Quality Biological, Gaithersburg, MD, cat. 114-055-101), at 800-fold the tested concentration and stored at -70 degrees C prior to their use. All drugs and investigational agents were tested over a range starting from a high concentration at or near the clinical Cmax and decreasing in half-log increments. If the clinical Cmax for an agent had not been determined, the highest concentration tested was 10 microM (Table 1).
Cell Culture. All cells were maintained in an incubator at 37 degrees C and 5% CO2 with 95% humidity. The PDC lines were cultured according to standard operating procedures established by the NCI PDMR (https://pdmr.cancer.gov). Briefly, all PDCs were thawed and cultured in Matrigel-coated flasks prepared with a working solution of 1X Ham's F-12 nutrient mix, without supplementation (Invitrogen, Waltham, MA, cat. 11765054), 100 U/mL penicillin-streptomycin (Invitrogen, cat. 15140122), and 2.5% Matrigel (Corning Inc., Corning, NY, cat. 354248) for the first three passages. All PDCs were cultured in complete DMEM/F-12 media containing advanced DMEM/F-12 (Invitrogen, cat. 12634028), 4.9% defined fetal bovine serum, heat inactivated (HyClone Laboratories Inc., Logan, UT, cat. SH30070.03HI), 389 ng/mL hydrocortisone (Sigma-Aldrich, cat. H4001), 9.7 ng/mL human EGF recombinant protein (Invitrogen, cat. PHG0313), 23.4 microg/mL adenine (Sigma-Aldrich, cat. A2786), 97.3 U/mL penicillin-streptomycin (Invitrogen, cat. 15140122), 1.9 mM L-glutamine (Invitrogen, cat. 25030081), and 9.7 microM Y-27632 dihydrochloride (Tocris Bioscience, Bristol, United Kingdom, cat. 1254). The PDCs were cultured in complete DMEM/F12 media without 10 microM Y-27632 dihydrochloride for at least two passages prior to the screen. The established cell lines NCI-H1341 and […] were cultured in DMEM/F-12, HEPES (Invitrogen, cat. 11330032), 5% defined fetal bovine serum (HyClone Laboratories Inc., cat. SH30070.03), ITS premix universal culture supplement [insulin (5 microg/mL), transferrin (5 microg/mL), and selenious acid (5 ng/mL)] […]

[1] = curve of first compound, second compound 0.1 µM
[2] = curve of first compound, second compound 0.316 µM
[3] = curve of first compound, second compound 1 µM
[4] = curve of first compound, second compound 3.16 µM
[5] = curve of first compound, second compound 10 µM
[6] = second compound 0.1 µM, first compound 0.0316 µM
[7] = second compound 0.1 µM, first compound 0.1 µM
[8] = second compound 0.1 µM, first compound 0.316 µM
[9] = second compound 0.1 µM, first compound 1 µM
[10] = second compound 0.1 µM, first compound 3.16 µM
[11] = second compound 0.1 µM, first compound 10 µM
[12] = second compound 0.316 µM, first compound 0.0316 µM
[13] = second compound 0.316 µM, first compound 0.1 µM
[14] = second compound 0.316 µM, first compound 0.316 µM
[15] = second compound 0.316 µM, first compound 1 µM
[16] = second compound 0.316 µM, first compound 3.16 µM
[17] = second compound 0.316 µM, first compound 10 µM
[18] = second compound 1 µM, first compound 0.0316 µM
[19] = second compound 1 µM, first compound 0.1 µM
[20] = second compound 1 µM, first compound 0.316 µM
[21] = second compound 1 µM, first compound 1 µM
[22] = second compound 1 µM, first compound 3.16 µM
[23] = second compound 1 µM, first compound 10 µM
[24] = second compound 3.16 µM, first compound 0.0316 µM
[25] = second compound 3.16 µM, first compound 0.1 µM
[26] = second compound 3.16 µM, first compound 0.316 µM
[27] = second compound 3.16 µM, first compound 1 µM
[28] = second compound 3.16 µM, first compound 3.16 µM
[29] = second compound 3.16 µM, first compound 10 µM
[30] = second compound 10 µM, first compound 0.0316 µM
[31] = second compound 10 µM, first compound 0.1 µM
[32] = second compound 10 µM, first compound 0.316 µM
[33] = second compound 10 µM, first compound 1 µM
[34] = second compound 10 µM, first compound 3.16 µM
[35] = second compound 10 µM, first compound 10 µM
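Also: spheroids exposed to agents for seven days before luminescence viability read.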
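For viability, T/C in this document: spheroids also contain HUVEC endothelial cells and human MSC stroma.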

| SMILES | IC50 [1] | IC50 [2] | IC50 [3] | IC50 [4] | IC50 [5] | viability, T/C [6] | viability, T/C [7] | viability, T/C [8] | viability, T/C [9] | viability, T/C [10] | viability, T/C [11] | viability, T/C [12] | viability, T/C [13] | viability, T/C [14] | viability, T/C [15] | viability, T/C [16] | viability, T/C [17] | viability, T/C [18] | viability, T/C [19] | viability, T/C [20] | other results |
| --- | --- | --- | --- | --- | --- | --- | --- | --- | --- | --- | --- | --- | --- | --- | --- | --- | --- | --- | --- | --- | --- |
| Nc1ccccc1NC(=O)c1ccc(CNC(=O)OCc2cccnc2)cc1 + Cc1ccccc1N=Nc1ccc(NC(=O)c2ccnn2C)c(C)c1 | 1260 nM | 999 nM | 992 nM | 1010 nM | 919 nM | 104% | 97.7% | 75.7% | 64.6% | 19.4% | 5.78% | 84.6% | 85.3% | 72% | 52.1% | 17.2% | 5.9% | 97.7% | 76% | 87.2% | viability, T/C [21]: 47.6%; viability, T/C [22]: 18.5%; viability, T/C [23]: 6.58%; viability, T/C [24]: 86.5%; viability, T/C [25]: 82.5%; viability, T/C [26]: 76.5%; viability, T/C [27]: 50.1%; viability, T/C [28]: 18.5%; viability, T/C [29]: 5.98%; viability, T/C [30]: 66.4%; viability, T/C [31]: 60.9%; viability, T/C [32]: 68.1%; viability, T/C [33]: 48%; viability, T/C [34]: 17%; viability, T/C [35]: 8.83% |
| Nc1ccccc1NC(=O)c1ccc(CNC(=O)OCc2cccnc2)cc1 + CC(CO)NC(=O)c1cc(-c2ccc(Cl)cc2)nn(-c2cnn(C)c2)c1=O | 873 nM | 1050 nM | 1060 nM | 1000 nM | 438 nM | 82.8% | 110% | 73.4% | 45.7% | 23.3% | 7.92% | 114% | 98.5% | 81.7% | 51.4% | 22.7% | 6.83% | 104% | 104% | 80.9% | viability, T/C [21]: 50.8%; viability, T/C [22]: 23.9%; viability, T/C [23]: 7.01%; viability, T/C [24]: 79.5%; viability, T/C [25]: 104%; viability, T/C [26]: 65.4%; viability, T/C [27]: 52.9%; viability, T/C [28]: 22.1%; viability, T/C [29]: 7.39%; viability, T/C [30]: 54.1%; viability, T/C [31]: 68.4%; viability, T/C [32]: 50.7%; viability, T/C [33]: 39.8%; viability, T/C [34]: 18.8%; viability, T/C [35]: 5.36% |
| NS(=O)(=O)OCC1CC(n2ccc3c(NC4CCc5ccccc54)ncnc32)CC1O (configuration not stated) |  |  |  |  |  |  |  |  |  |  |  |  |  |  |  |  |  |  |  |  | viability, T/C (compound 0.0316 µM): 94% and 96.6% and 72.3%; viability, T/C (compound 0.1 µM): 96.1% and 79.4% and 73.2%; viability, T/C (compound 0.316 µM): 72.6% and 35.4% and 34.8%; viability, T/C (compound 1 µM): 27.8% and 25.5% and 21.3%; viability, T/C (compound 3.16 µM): 15.2% and 12.5% and 14%; viability, T/C (compound 10 µM): 6.38% and 8.08% and 8.54%; IC50 (curve of compound): 572 nM and 231 nM and 199 nM |
